Source: patent USRE40793E1, “Bicyclic benzamides of 3-or 4-substituted 4-(aminomethyl)-piperidine derivatives” (Janssen Pharmaceutica, N.V., priority 1997, dated 2009)

Tested on: conscious dogs
Test: Gastric emptying of an acaloric liquid test meal delayed by administration of lidamidine, in conscious dogs
Assay type: in vivo, beagle dogs
Conditions: conscious dog; for ΔT/T^b (acceleration of gastric emptying of a liquid meal delayed by lidamidine) / change in vivo at 0.0025 mg/kg: dose 0.0025 mg/kg; for ΔT/T^a (acceleration of gastric emptying of a liquid meal delayed by lidamidine) / change in vivo at 0.01 mg/kg: dose 0.01 mg/kg; for change in vivo at 0.0025 mg/kg / change in vivo at 0.01 mg/kg: Canis lupus familiaris; for change in vivo at 0.0025 mg/kg: read-out: ΔT/T^b (acceleration of gastric emptying of a liquid meal delayed by lidamidine); for change in vivo at 0.01 mg/kg: read-out: ΔT/T^a (acceleration of gastric emptying of a liquid meal delayed by lidamidine)
Description: C. Pharmacological Examples C.1. Gastric Emptying of an Acaloric Liquid Test Meal Delayed by Administration of Lidamidine, in Conscious Dogs
Female beagle dogs, weighing 7-14 kg, were trained to stand quietly in Pavlov frames. They were implanted with a gastric cannula under general anesthesia and aseptic precautions. After a medium laparatomy, an incision was made through the gastric wall in the longitudinal direction between the greater and the lesser curve, 2 cm above the nerves of Latarjet. The cannula was secured to the gastric wall by means of a double purse string suture and brought out via a stab wound at the left quadrant of the hypochondrium. Dogs were allowed a recovery period of at least two weeks. Experiments were started after a fasting period of 24 hours, during which water was available ad libitum. At the beginning of the experiment, the cannula was opened in order to remove any gastric juice or food remnants.
The stomach was cleansed with 40 to 50 ml lukewarm water. The test compound was administered I.V. (in a volume ≦3 ml via the vena cephalica), S.C. (in a volume ≦3 ml) or P.O. (in a volume of 1 ml/kg body weight, applied intragastrically via the cannula with a device that filled the lumen of the cannula: after injection of the test compound; 5 ml NaCl 0.9% was injected in order to correct for the dead space in the injection system). Immediately after administration of the test compound or its solvent, lidamidine (0.63 mg/kg was administered subcutaneously. 30 min later, the cannula was opened to determine the amount of fluid present in the stomach, promptly followed by reintroduction of the fluid. Then the test meal was administered via the cannula. This test meal consisted of 250 ml distilled water containing glucose (5 g/l) as a marker. The cannula remained closed for 30 min, whereafter the gastric contents were drained from the stomach to measure total volume (t=30 min). For later analysis 1 ml of the gastric contents was taken, promptly followed by reintroduction of the rest volume into the stomach. This sequence was repeated 4 times with 30 min intervals (t=60, 90, 120, 150 min).
In the 1 ml samples of the gastric contents, the glucose concentrations were measured on a Hitachi 717 automatic analyzer by the hexokinase method (Schmidt, 1961).
Curves were fitted to the measurement points (glucose versus time) using weighed non-linear regression analysis. Gastric emptying was quantified as the time needed to empty 70% of the meal (t 70%). The control emptying time was calculated as the mean t 70% of the last 5 solvent experiments of the same dog. Acceleration of delayed gastric emptying (Δt) was calculated as the time difference between t 70% compound and t 70% solvent. To correct for variations in emptying rate between dogs, Δt was expressed as % of t 70% solvent (Schuurkes et al. 1992)).

[1] = compounds, Δt = t 70% compound minus t 70% solvent, relative to t 70% solvent

| Compound | ΔT/T^b (acceleration of gastric emptying of a liquid meal delayed by lidamidine) [1] | ΔT/T^a (acceleration of gastric emptying of a liquid meal delayed by lidamidine) [1] | also measured |
| --- | --- | --- | --- |
| CCCCN1CC[C@@H](CNC(=O)c2cc(Cl)c(N)c3c2OCC3)[C@@H](O)C1 (racemic) [Compound 1] | −0.23 | −0.20 | – |
| Nc1c(Cl)cc(C(=O)NC[C@@H]2CCN(CCOCCO)C[C@H]2O)c2c1CCO2 (racemic) [Compound 17] | −0.30 | 0.06 | ΔT/T^b (acceleration of gastric emptying of a liquid meal delayed by lidamidine) (intermediates): −0.18; ΔT/T^a (acceleration of gastric emptying of a liquid meal delayed by lidamidine) (intermediates): −0.28 |
| N#CCCCN1CC[C@@H](CNC(=O)c2cc(Cl)c(N)c3c2OCC3)[C@H](O)C1 (racemic) [Compound 18] | −0.47 | −0.57 | – |
| CC(C)OCCCN1CC[C@@H](CNC(=O)c2cc(Cl)c(N)c3c2OCC3)[C@H](O)C1 (racemic) [Compound 19] | −0.30 | −0.78 | – |
| CS(=O)(=O)NCCN1CC[C@@H](CNC(=O)c2cc(Cl)c(N)c3c2OCC3)[C@H](O)C1 (racemic) [Compound 20] | −0.20 | −0.28 | – |
| CCCCN1CC[C@@H](CNC(=O)c2cc(Cl)c(N)c3c2OCC3)[C@H](OC)C1 (racemic) [Compound 29] | −0.32 | −0.51 | – |
| CCCCN1CC[C@@H](CNC(=O)c2cc(Cl)c(N)c3c2OC(C)(C)C3)[C@H](O)C1 (racemic) [Compound 36] | – | −0.01 | – |
| COCCCN1CC[C@@H](CNC(=O)c2cc(Cl)c(N)c3c2OC(C)(C)C3)[C@H](O)C1.O=C(O)C(=O)O (racemic) [Compound 37] | −0.41 | −0.62 | – |
| CC(C)OCCCN1CC[C@@H](CNC(=O)c2cc(Cl)c(N)c3c2OC(C)(C)C3)[C@H](O)C1.O=C(O)/C=C\C(=O)O (racemic) [Compound 42] | – | −0.12 | – |
| CC(=O)CCCN1CC[C@@H](CNC(=O)c2cc(Cl)c(N)c3c2OC(C)(C)C3)[C@H](O)C1 (racemic) [Compound 49] | −0.19 | −0.28 | – |
| CCCCN1CC[C@@H](CNC(=O)c2cc(Cl)c(N)c3c2OCC3)[C@H](O)C1 (relative stereo) [Compound 2, trans-4-amino-N-[(1-butyl-3-hydroxy-4-piperidinyl)methyl]-5-chloro-2,3-dihydro-7-benzofurancarboxamide] | – | – | change in vivo at 0.0025 mg/kg [1]: -61%; change in vivo at 0.01 mg/kg [1]: -34% |
| COCCCN1CC[C@@H](CNC(=O)c2cc(Cl)c(N)c3c2OCC3)[C@H](O)C1 (relative stereo) [Compound 3, trans-4-amino-5-chloro-2,3-dihydro-N-[[3-hydroxy-1-(3-methoxypropyl)-4-piperidinyl]methyl]-7-benzofurancarboxamide] | – | – | change in vivo at 0.0025 mg/kg [1]: -51%; change in vivo at 0.01 mg/kg [1]: -73% |
| CC(=O)CCCN1CC[C@H](CNC(=O)c2cc(Cl)c(N)c3c2OCC3)[C@H](O)C1 (relative stereo) [Compound 4, (cis)-4-amino-5-chloro-2,3-dihydro-N-[[3-hydroxy-1-(4-oxopentyl)-4-piperidinyl]methyl]-7-benzofurancarboxamide] | – | – | change in vivo at 0.0025 mg/kg [1]: -21%; change in vivo at 0.01 mg/kg [1]: -8% |
| CC(=O)CCCN1CC[C@@H](CNC(=O)c2cc(Cl)c(N)c3c2OCC3)[C@H](O)C1 (relative stereo) [Compound 5, trans-4-amino-5-chloro-2,3-dihydro-N-[[3-hydroxy-1-(4-oxopentyl)-4-piperidinyl]methyl]-7-benzofurancarboxamide] | – | – | change in vivo at 0.0025 mg/kg [1]: -57%; change in vivo at 0.01 mg/kg [1]: -36% |
| CO[C@@H]1CN(CCCC(C)=O)CC[C@H]1CNC(=O)c1cc(Cl)c(N)c2c1OCC2 (relative stereo) [Compound 28, trans-4-amino-5-chloro-2,3-dihydro-N-[[3-methoxy-1-(4-oxopentyl)-4-piperidinyl]methyl]-7-benzofurancarboxamide] | – | – | change in vivo at 0.0025 mg/kg [1]: -42%; change in vivo at 0.01 mg/kg [1]: -56% |
| COCCCN1CC[C@@H](CNC(=O)c2cc(Cl)c(N)c3c2OCC3)[C@H](OC)C1 (relative stereo) [Compound 30, trans-4-amino-5-chloro-2,3-dihydro-N-[[3-methoxy-1-(3-methoxypropyl)-4-piperidinyl]methyl]-7-benzofurancarboxamide] | – | – | change in vivo at 0.0025 mg/kg [1]: -55%; change in vivo at 0.01 mg/kg [1]: -59% |
| COCCCN1CC[C@@H](CNC(=O)c2cc(Cl)c(N)c3c2OC(C)(C)C3)[C@H](O)C1 (relative stereo) [Compound 39, trans-(−)-4-amino-5-chloro-2,3-dihydro-N-[[3-hydroxy-1-(3-methoxypropyl)-4-piperidinyl]methyl]-2,2-dimethyl-7-benzofurancarboxamide] | −0.43 | −0.53 | – |
| COCCCN1CC[C@@H](CNC(=O)c2cc(Cl)c(N)c3c2OC(C)(C)C3)[C@H](O)C1 (relative stereo) [Compound 40, trans-(+)-4-amino-5-chloro-2,3-dihydro-N-[[3-hydroxy-1-(3-methoxypropyl)-4-piperidinyl]methyl]-2,2-dimethyl-7-benzofurancarboxamide] | −0.17 | −0.22 | – |
| CCCCN1CC[C@@H](CNC(=O)c2cc(Cl)c(N)c3c2OC(C)(C)C3)[C@H](OC)C1.O=C(O)C(=O)O (relative stereo) [Compound 51] | – | −0.45 | – |
| CO[C@@H]1CN(CCCC(C)=O)CC[C@H]1CNC(=O)c1cc(Cl)c(N)c2c1OC(C)(C)C2.O=C(O)C(=O)O (relative stereo) [Compound 52] | – | −0.18 | – |
| CCCCN1CC[C@@H](CNC(=O)c2cc(Cl)c(N)c3c2OCCO3)[C@@H](O)C1.Cl.O (relative stereo) [Compound 54] | 0.04 | −0.28 | – |
| CCCCN1CC[C@@H](CNC(=O)c2cc(Cl)c(N)c3c2OCCO3)[C@H](O)C1 (relative stereo) [Compound 55, (trans)-8-amino-N-[(1-butyl-3-hydroxy-4-piperidinyl)methyl]-7-chloro-2,3-dihydro-1,4-benzodioxin-5-carboxamide] | – | – | change in vivo at 0.0025 mg/kg [1]: -18%; change in vivo at 0.01 mg/kg [1]: -29% |
| COCCCN1CC[C@@H](CNC(=O)c2cc(Cl)c(N)c3c2OCCO3)[C@H](O)C1 (relative stereo) [Compound 57] | −0.03 | −0.10 | – |
| CC(=O)CCCN1CC[C@@H](CNC(=O)c2cc(Cl)c(N)c3c2OCCO3)[C@@H](O)C1 (relative stereo) [Compound 58] | −0.20 | 0.09 | – |
